Measurements taken from patent publication US12544357B2, “Compositions and methods for the treatment of Plasmodium falciparum malaria” (priority 2021, dated 2026).
Like-named read-outs stand apart in the source and are kept apart here.

Experiments:
[1] = system: P. falciparum strain 3D7 parasites; assay: parasite killing assay, P. falciparum 3D7, pLDH readout; assay type: cell-based, Plasmodium falciparum; conditions: ring stage
Protocol: P. falciparum strain 3D7 parasites were synchronized to the ring stage and incubated with a dilution series of compound or media control for 48 hours followed by quantification of parasitemia by Plasmodium lactate dehydrogenase assay (pLDH) assay.
(§1) P. falciparum strain 3D7 (Panels A and C) or 3D7 PfGARP KO (Panel B) parasites were synchronized to the ring stage and incubated with a dilution series of compound or media control for 48 hours followed by quantification of parasitemia by pLDH assay.
(§2) A limited structure-activity relationship (SAR) study was then conducted, evaluating 48 analog compounds having the same backbone (black in FIG. 3 inset and FIG. 4), but varying R groups (red) using P. falciparum strain 3D7 and 3D7 PfGARP KO parasites. For the SAR study, 3D7 or 3D7 PfGARP KO parasites were synchronized to the ring stage and incubated with a dilution series of compounds or media control for 48 hours followed by quantification of parasitemia by Plasmodium lactate dehydrogenase assay (pLDH) assay.^30 Each dilution was evaluated in quadruplicate. In all experiments, DMSO concentration was <0.1%.
The small molecule compounds shown in FIG. 4 were tested for their abilities to kill P. falciparum strain 3D7 parasites.

[2] = system: 3D7 PfGARP KO parasites; assay: morphological effects on 3D7 PfGARP KO parasites; assay type: cell-based, Plasmodium falciparum; conditions: 100 μM, 48 hours
Protocol: (§3) FIG. 6 illustrates the morphological changes that occur when compound ID #9081579 activates parasite apoptosis in P. falciparum strain 3D7 (Panel C), or 3D7 PfGARP KO (Panel B) incubated with 100 μM ID #9081579 (Panels A-B) or vehicle control (Panel A) for 48 hours.
(§4) To assess the morphological effects of compound ID #9081579, 3D7 or 3D7 PfGARP KO parasites were synchronized to the ring stage and incubated with 100 μM 9081579 or vehicle control for 48 hours. […] This induction of apoptosis is further supported by caspase activation and mitochondrial depolarization assays induced by compounds ID #9081579 and ID #9078424 (see FIG. 7).

[3] = system: Human WBC (CD45+); assay: human WBC viability by 7AAD/annexin V flow cytometry; assay type: cell-based
Protocol: Cells were stained with 7AAD and annexin V and analyzed by flow cytometry to assess viability (7AAD−, annexin V−), necrosis (7AAD+, annexin V−), early apoptosis (7AAD−, annexin V+), and late apoptosis (7AAD+, annexin V+).
Human WBC (CD45+) were incubated in the presence of increasing concentrations of compound ID #9081579 or vehicle alone for 48 hours. Cells were stained with 7AAD and annexin V and analyzed by flow cytometry to assess viability (7AAD−, annexin V−), necrosis (7AAD+, annexin V−), early apoptosis (7AAD−, annexin V+), and late apoptosis (7AAD+, annexin V+).

[4] = system: P. falciparum 3D7^0087/N9 strain parasites; assay: NSG/P. falciparum humanized mouse model, adapted strain; assay type: in vivo, Plasmodium falciparum; conditions: 100 mg/kg IP every 8 hours for 4 days, adapted strain 3D70087/N9
Protocol: (§5) ID #9081579 was evaluated in the NSG/P. falciparum humanized mouse model. Mice were reconstituted with human RBC, infected with P. falciparum 3D7^0087/N9 strain parasites and treated with drug or vehicle control (100 mg/kg dosed IP every 8 hours for 4 days). Parasitemia was monitored by microscopy.
Just prior to submission, we have repeated this experiment using ID #9081579 and an adapted parasite strain (3D70087/N9).

[5] = system: 3D7 PfGARP KO parasites; assay: parasite killing assay, 3D7 PfGARP KO, pLDH readout; assay type: cell-based, Plasmodium falciparum; conditions: 48 hours
Protocol: as §1, §2

[6] = system: 3D7 parasites; assay: morphological effects on 3D7 parasites; assay type: cell-based, Plasmodium falciparum; conditions: 100 μM, 48 hours
Protocol: as §3, §4

[7] = system: BeWo cells; assay: BeWo crystal violet viability assay; assay type: cell-based, human
Protocol: BeWo, a human choriocarcinoma cell line, were grown in the presence of increasing concentrations of ID #9081579 or vehicle alone and cell concentration was measured using a crystal violet viability assay performed 48 hours after addition of drug. Points represent the mean of three independent technical replicates. Bars represent SD.
BeWo cells are a human placental cell line that originates from a choriocarcinoma.^31 These cells have been used widely as an in vitro model to study placental uptake of a variety of nutrients including glucose, amino acids, and iron. BeWo choriocarcinoma cells were grown in the presence of increasing concentrations of compound ID #9081579 or vehicle alone. Cell concentration was measured using a crystal violet viability assay performed 48 hours after addition of drug.

[8] = target: PfGARP-A (Plasmodium falciparum, UniProt Q9U0N1); assay: surface plasmon resonance (SPR) binding on BiaCore100
Chain of PfGARP-A (Q9U0N1 entry or part of it): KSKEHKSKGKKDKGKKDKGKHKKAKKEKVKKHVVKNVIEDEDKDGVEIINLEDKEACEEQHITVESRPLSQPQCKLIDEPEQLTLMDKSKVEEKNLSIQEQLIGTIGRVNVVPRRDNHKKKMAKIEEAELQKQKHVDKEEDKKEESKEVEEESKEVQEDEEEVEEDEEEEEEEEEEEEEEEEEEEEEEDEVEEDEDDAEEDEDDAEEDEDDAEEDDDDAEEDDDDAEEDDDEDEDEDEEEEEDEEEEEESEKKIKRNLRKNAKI
Text: Drugs were immobilized to a CM5 sensorchip and probed with varying concentrations of full length PfGARP on a BiaCore100.
PfGARP-A was immobilized to a sensorchip and probed with varying concentrations of drug on a BiaCore100.

[9] = system: P. falciparum parasites; assay: parasite apoptosis assays (JC-1, TUNEL, ApoStat staining); assay type: cell-based, Plasmodium falciparum
Protocol: as §4

[10] = system: P. falciparum 3D7 strain parasites; assay: NSG/P. falciparum humanized mouse model, 3D7; assay type: in vivo, Plasmodium falciparum; conditions: 100 mg/kg IP every 8 hours for 4 days, Pf3D7
Protocol: as §5, with “Drugs were” for “ID #9081579 was”, “3D7” for “3D7^0087/N9”, “microscopy. Results representative of two independent experiments.” for “microscopy.”
The NSG mouse (NOD scid gamma mouse) is a brand of immunodeficient laboratory mice, which carries the strain non-obese diabetic (NOD). The efficacy of both lead compounds ID #9081579 and ID #9078424 were evaluated in the NSG/P. falciparum humanized mouse model.^32,33,34,35
Briefly, NSG mice (NOD.Cg-Prkdc^scidII2rg^tm1Wjl/SzJ; JAX Cat #005557) were reconstituted with human RBC (huRBC) by daily IP injections with 1 mL of huRBC at 50% hematocrit. On day 12, mice were infected with of 2×10^7 Pf3D7 infected huRBCs via tail vein injection. On day 15, mice were injected IP with ID #9081579 or ID #9078424 at 100 mg/kg final dose (approximately 2 mg per mouse in 5% DMSO/95% PEG400 vehicle) or vehicle alone. Mice were treated with drug or vehicle control every 8 hours for 4 days. This dose and schedule was designed to maintain plasma drug levels above 50 μM, as informed by our single dose PK study in Example 5.

[11] = system: strain INDO; assay: parasite killing in chloroquine and quinine resistant strain INDO; assay type: cell-based; conditions: Plasmodium falciparum
[12] = system: P. falciparum 3D7 strain parasites; conditions: artesunate at 50 and 100 mg/kg, literature ref 36; cited from earlier work
[13] = target: T1, PfGARP (aa 377-560) (Plasmodium falciparum, UniProt P13816); assay: 1H-15N HSQC binding signature
T1 construct: made in house
T1 sequence (P13816 377-560): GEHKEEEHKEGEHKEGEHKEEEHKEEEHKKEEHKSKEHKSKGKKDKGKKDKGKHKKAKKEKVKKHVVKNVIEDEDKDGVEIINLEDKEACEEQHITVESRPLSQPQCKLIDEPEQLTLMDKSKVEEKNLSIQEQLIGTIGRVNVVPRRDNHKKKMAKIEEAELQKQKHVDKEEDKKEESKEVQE
Protocol: Spectra were collected on a 600 MHz Bruker spectrometer at 17° C. from samples with PfGARP (aa 377-560) alone (Red), or in complex with ID #9078424 (Blue).
Two-dimension (2D) heteronuclear single quantum coherence (HSQC) spectroscopy was used to characterize the binding of ID #9078424 to PfGARP.
Using a series of recombinant PfGARP fragments, ^1H-^15N HSQC experiments were performed using PfGARP with and without ID #9078424. These experiments confirmed predictions that PfGARP was largely an intrinsically disordered protein.

[14] = increasing concentrations, 48 hours
[15] = FIG. 8 legend: drugs immobilized to CM5 sensorchip
[16] = PfGARP-A immobilized to sensorchip, probed with drug

SMILES	IC50 ([1]; 48 hours, read-out: IC50)	also measured
CS(=O)(=O)N(CC(=O)N1CCOCC1)c1ccc2c(c1)OCCO2 [ID #7641147]	355 µM	
COc1ccc(N(C(C)C(=O)Nc2ccc3c(c2)OCCO3)S(C)(=O)=O)cc1 (stereo not drawn) [ID #7123771]	> 10000 µM	
CC1CCN(C(=O)C(C)N(c2ccc3c(c2)OCCO3)S(C)(=O)=O)CC1 (stereo not drawn) [ID #9084012]	80.2 µM	
CC(C(=O)NC1CCCCCC1)N(c1ccc2c(c1)OCCO2)S(C)(=O)=O (stereo not drawn) [ID #9083885]	57.2 µM	
COc1cccc(NC(=O)C(C)N(c2ccc3c(c2)OCCO3)S(C)(=O)=O)c1 (stereo not drawn) [ID #9085101]	> 10000 µM	
CC(C(=O)N1CCCC1)N(c1ccc2c(c1)OCCO2)S(C)(=O)=O (stereo not drawn) [ID #9080993]	> 10000 µM	
CC(C(=O)N1CCN(C)CC1)N(c1ccc2c(c1)OCCO2)S(C)(=O)=O (stereo not drawn) [ID #9072406]	412 µM	
CCOc1ccccc1NC(=O)C(C)N(c1ccc2c(c1)OCCO2)S(C)(=O)=O (stereo not drawn) [ID #9077487]	49.6 µM	
CC(C(=O)N1CCCCC1)N(c1ccc2c(c1)OCCO2)S(C)(=O)=O (stereo not drawn) [ID #9082855]	70.3 µM	
CSc1cccc(NC(=O)C(C)N(c2ccc3c(c2)OCCO3)S(C)(=O)=O)c1 (stereo not drawn) [ID #9081579]	1.88 µM	morphological changes [2]: not observed; highest non-toxic concentration relative to IC50 for parasites ([3]; human WBC (CD45+)): 100 fold; concentration causing loss of viability (no loss up to highest concentration tested) ([3]; human WBC (CD45+), 48 hours): > 400 µM; cytotoxicity to human white blood cells [3, 14]: not cytotoxic; IC50 ([1]; Plasmodium falciparum, 3D7, 48 h, read-out: IC50): 1.8 to 4.8 µM; parasitemia [4]: rapidly eliminated parasitemia; parasite killing activity in PfGARP KO parasites [5]: no activity; morphological changes [6]: dysmorphic, shrunken features with pyknotic nuclei; highest non-toxic concentration relative to IC50 for parasites ([7]; BeWo cells): 50 fold; concentration causing loss of viability (no loss up to highest concentration tested) ([7]; BeWo cells, 48 hours, crystal violet): > 200 µM; growth of BeWo cells [7, 14]: does not inhibit the growth of BeWo cells; SPR kinetics [8, 15]: fast on, slow off kinetics; SPR kinetics [8, 16]: fast on/off kinetics; parasite apoptosis (JC-1, TUNEL, ApoStat staining) [9]: activate parasite apoptosis; parasitemia [10]: no detectible parasitemia after three days of drug treatment; IC50 [11]: 5 to 8 µM
Cc1cccc(C)c1NC(=O)C(C)N(c1ccc2c(c1)OCCO2)S(C)(=O)=O (stereo not drawn) [ID #9084931]	68.5 µM	
C[C@H]1[C@H](OC(=O)CCC(=O)O)O[C@@H]2O[C@@]3(C)CC[C@H]4[C@H](C)CC[C@@H]1[C@@]24OO3 [artesunate]		parasite clearance [12]: rapid clearance
CC(C(=O)N1CCOCC1)N(c1ccc2c(c1)OCCO2)S(C)(=O)=O (stereo not drawn) [ID #9075078]	> 10000 µM	
CC(C(=O)N(C)C)N(c1ccc2c(c1)OCCO2)S(C)(=O)=O (stereo not drawn) [ID #9082916]	509 µM	
CC(C(=O)NC1CC2CCC1C2)N(c1ccc2c(c1)OCCO2)S(C)(=O)=O (stereo not drawn) [ID #9085023]	46.8 µM	
CS(=O)(=O)N(CC(=O)NCCCN1CCCC1)c1ccc2c(c1)OCCO2 [ID #9146302]	124 µM	
CC(C(N)=O)N(c1ccc2c(c1)OCCO2)S(C)(=O)=O (stereo not drawn) [ID #9076661]	132 µM	
COc1ccccc1NC(=O)C(C)N(c1ccc2c(c1)OCCO2)S(C)(=O)=O (stereo not drawn) [ID #9084682]	> 10000 µM	
Cc1cccc(NC(=O)C(C)N(c2ccc3c(c2)OCCO3)S(C)(=O)=O)c1 (stereo not drawn) [ID #9083036]	80.8 µM	
CC(C(=O)Nc1ccccc1Cl)N(c1ccc2c(c1)OCCO2)S(C)(=O)=O (stereo not drawn) [ID #9078424]	4.39 µM	IC50 ([1]; 48 hours): 4.4 µM; SPR kinetics [8, 15]: fast on, slow off kinetics; SPR kinetics [8, 16]: fast on/off kinetics; parasite apoptosis (JC-1, TUNEL, ApoStat staining) [9]: activate parasite apoptosis; parasitemia [10]: no detectible parasitemia after three days of drug treatment; binding to PfGARP fragment aa 377-560 [13]: specific drug binding
CC(C(=O)NC1CCCCC1)N(c1ccc2c(c1)OCCO2)S(C)(=O)=O (stereo not drawn) [ID #9083607]	160 µM	
CC(C(=O)NC1CCCC1)N(c1ccc2c(c1)OCCO2)S(C)(=O)=O (stereo not drawn) [ID #9074663]	235 µM	
CS(=O)(=O)N(CC(=O)N1CCCCCC1)c1ccc2c(c1)OCCO2 [ID #7627706]	143 µM	
CNC(=O)CN(c1ccc2c(c1)OCCO2)S(C)(=O)=O [ID #7626390]	> 10000 µM	
CC(C(=O)Nc1ccccc1)N(c1ccc2c(c1)OCCO2)S(C)(=O)=O (stereo not drawn) [ID #9083000]	182 µM	
CN(C)CCNC(=O)CN(c1ccc2c(c1)OCCO2)S(C)(=O)=O [ID #9134158]	134 µM	
CS(=O)(=O)N(CC(=O)N1CCCC1)c1ccc2c(c1)OCCO2 [ID #7639273]	> 10000 µM	
Cc1ccccc1NC(=O)C(C)N(c1ccc2c(c1)OCCO2)S(C)(=O)=O (stereo not drawn) [ID #9072806]	85.3 µM	
CC(C(=O)NC1CC1)N(c1ccc2c(c1)OCCO2)S(C)(=O)=O (stereo not drawn) [ID #9083268]	387 µM	
